Reference: patent publication US20170296682A1, “DERIVATIVES OF DIBENZOTHIOPHENE IMAGING OF alpha-7 NICOTINIC ACETYLCHOLINE RECEPTORS” (THE JOHNS HOPKINS UNIVERSITY, priority 2015, published 2017)
Values joined by “and” are separate entries in the source; they are usually repeats but may differ in a detail not shown here. Equal values may be shown once. Read-outs that look alike come from different tables or passages of the source.

How the values were obtained:
[1] = biological target: T1, α7-nAChR (Mus musculus, UniProt P49582); parameters: studied in mice, pigs, and non-human primates as potential α7-nAChR probes; host or cells: mouse brain (cortex) in vivo; species or system mice; details: in vivo
T1 sequence (P49582 23-502): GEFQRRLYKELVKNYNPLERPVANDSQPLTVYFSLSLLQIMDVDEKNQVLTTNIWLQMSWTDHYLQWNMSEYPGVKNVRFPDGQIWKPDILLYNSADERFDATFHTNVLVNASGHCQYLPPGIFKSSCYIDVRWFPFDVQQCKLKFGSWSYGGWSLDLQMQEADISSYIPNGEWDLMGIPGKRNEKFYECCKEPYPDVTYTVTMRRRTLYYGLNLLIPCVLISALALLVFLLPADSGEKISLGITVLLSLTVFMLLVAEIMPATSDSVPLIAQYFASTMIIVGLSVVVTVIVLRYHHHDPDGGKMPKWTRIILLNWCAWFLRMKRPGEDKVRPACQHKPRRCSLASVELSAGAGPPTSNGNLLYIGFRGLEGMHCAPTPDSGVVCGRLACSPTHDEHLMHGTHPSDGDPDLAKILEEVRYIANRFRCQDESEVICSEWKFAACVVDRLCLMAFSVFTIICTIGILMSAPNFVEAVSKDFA

[2] = biological target: T1, α7-nAChR; parameters: The brains were rapidly removed and dissected on ice; tissue Charles River Laboratories; host or cells: brain of live male CD-1 mice; species or system CD-1 mice; details: in vivo
[3] = test system: a7-nAChR; details: for Mean occupancy of a7-nAChRs: baboon
[4] = 18F-ASEM radiometabolite analysis in baboon; details: baboons, 90 min after injection
Protocol: (§1) Baboon arterial blood samples were withdrawn at 5, 10, 20, 30, 60, and 90 min after ^18-FASEM injection, and plasma was analyzed by HPLC. Male CD-1 mice (25-26 g) were injected via the lateral tail veins with 37 MBq of high-specific-activity ^18-FASEM. The mice were killed by cervical dislocation at 2 and 30 min after injection, and a terminal blood sample was obtained.

[5] = biological target: T2, α7-nAChR (Rattus norvegicus, UniProt Q05941); test: biochemical; assay type: binding
T2 sequence (Q05941 23-502): as the sequence (P49582 23-502) above, with T402A counted along it

[6] = biological target: T3, α7-nAChR (Homo sapiens, UniProt P36544); details: in vivo
T3 sequence (P36544 23-502): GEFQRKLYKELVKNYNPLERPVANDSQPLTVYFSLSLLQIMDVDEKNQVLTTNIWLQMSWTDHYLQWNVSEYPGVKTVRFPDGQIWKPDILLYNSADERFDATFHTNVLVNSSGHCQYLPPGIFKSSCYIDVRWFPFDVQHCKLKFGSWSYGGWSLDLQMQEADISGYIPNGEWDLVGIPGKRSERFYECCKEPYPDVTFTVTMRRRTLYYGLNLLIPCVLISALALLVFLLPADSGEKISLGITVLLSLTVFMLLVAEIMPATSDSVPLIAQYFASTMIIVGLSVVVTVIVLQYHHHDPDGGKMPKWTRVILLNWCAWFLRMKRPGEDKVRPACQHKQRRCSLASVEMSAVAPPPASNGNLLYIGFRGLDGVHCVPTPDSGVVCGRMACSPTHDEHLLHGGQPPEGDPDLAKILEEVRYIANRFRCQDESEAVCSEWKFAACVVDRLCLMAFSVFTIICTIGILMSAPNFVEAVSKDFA

[7] = assay type: binding; details: read-out: human Ki α7-nAChR
[8] = male, human, in vivo
[9] = biological target: T1, α7-nAChR; details: in vivo
[10] = biological target: rat α7-nAChRs (Rattus norvegicus, UniProt Q05941); assay type: cell-based
Chain of rat α7-nAChRs (Q05941 23-502): as the sequence (P49582 23-502) above, with T402A counted along it

[11] = male, CD-1, mouse, in vivo, iv
Protocol: as §1

[12] = 18F-ASEM radiometabolite analysis in mice
Protocol: as §1

[13] = biological target: α2β2-nAChR (Rattus norvegicus, UniProt P12389+P12390); test: Heteromeric nAChR binding assay, transfected HEK293 membranes, [3H]epibatidine; details: stably transfected HEK293 cells, [3H]epibatidine (0.5 nM)
Chain of α2β2-nAChR (P12389 28-511): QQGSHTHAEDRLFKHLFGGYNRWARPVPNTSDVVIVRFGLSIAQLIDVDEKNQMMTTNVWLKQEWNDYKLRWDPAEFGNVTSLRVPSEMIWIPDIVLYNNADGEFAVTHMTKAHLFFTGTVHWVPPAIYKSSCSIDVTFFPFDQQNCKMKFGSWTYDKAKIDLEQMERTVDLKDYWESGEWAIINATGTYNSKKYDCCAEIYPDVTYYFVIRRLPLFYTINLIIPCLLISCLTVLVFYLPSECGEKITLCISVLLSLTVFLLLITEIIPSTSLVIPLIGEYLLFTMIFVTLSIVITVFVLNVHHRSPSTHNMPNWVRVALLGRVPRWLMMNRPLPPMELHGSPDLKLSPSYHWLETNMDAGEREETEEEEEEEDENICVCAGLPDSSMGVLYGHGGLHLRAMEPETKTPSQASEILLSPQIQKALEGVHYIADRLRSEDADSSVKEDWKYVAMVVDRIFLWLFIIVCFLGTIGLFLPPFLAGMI
Chain of α2β2-nAChR (P12390 25-500): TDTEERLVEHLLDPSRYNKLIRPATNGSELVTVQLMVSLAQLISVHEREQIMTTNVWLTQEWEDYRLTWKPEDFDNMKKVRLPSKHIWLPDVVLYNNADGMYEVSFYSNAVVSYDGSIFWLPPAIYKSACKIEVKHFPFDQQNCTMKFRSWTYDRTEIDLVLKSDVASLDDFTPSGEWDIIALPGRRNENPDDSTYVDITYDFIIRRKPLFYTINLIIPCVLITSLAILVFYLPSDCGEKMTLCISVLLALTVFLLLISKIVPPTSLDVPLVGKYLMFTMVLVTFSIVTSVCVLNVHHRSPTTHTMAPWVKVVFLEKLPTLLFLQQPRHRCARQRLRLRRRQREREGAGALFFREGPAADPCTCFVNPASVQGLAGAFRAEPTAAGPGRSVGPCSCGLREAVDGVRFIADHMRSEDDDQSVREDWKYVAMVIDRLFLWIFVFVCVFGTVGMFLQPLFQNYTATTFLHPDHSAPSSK

[14] = biological target: T4, α3β4-nAChR (Rattus norvegicus, UniProt P04757+P12392); test: as above; details: stably transfected HEK293 cells, [3H]epibatidine (0.5 nM)
T4 construct: expressed in transfected cells
T4 sequence (P04757 26-499): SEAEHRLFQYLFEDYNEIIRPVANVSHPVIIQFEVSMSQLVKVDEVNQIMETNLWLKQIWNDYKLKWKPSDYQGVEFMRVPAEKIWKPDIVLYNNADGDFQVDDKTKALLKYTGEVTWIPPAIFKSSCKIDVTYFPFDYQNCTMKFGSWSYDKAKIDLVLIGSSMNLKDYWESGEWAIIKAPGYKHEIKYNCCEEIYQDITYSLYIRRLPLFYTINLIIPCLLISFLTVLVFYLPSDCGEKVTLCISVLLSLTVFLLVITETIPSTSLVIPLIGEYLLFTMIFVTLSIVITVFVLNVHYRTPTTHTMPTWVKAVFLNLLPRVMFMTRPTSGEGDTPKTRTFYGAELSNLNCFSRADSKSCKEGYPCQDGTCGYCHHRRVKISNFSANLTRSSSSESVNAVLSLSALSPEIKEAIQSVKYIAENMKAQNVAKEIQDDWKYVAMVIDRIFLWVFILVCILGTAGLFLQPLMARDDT
T4 sequence (P12392 21-495): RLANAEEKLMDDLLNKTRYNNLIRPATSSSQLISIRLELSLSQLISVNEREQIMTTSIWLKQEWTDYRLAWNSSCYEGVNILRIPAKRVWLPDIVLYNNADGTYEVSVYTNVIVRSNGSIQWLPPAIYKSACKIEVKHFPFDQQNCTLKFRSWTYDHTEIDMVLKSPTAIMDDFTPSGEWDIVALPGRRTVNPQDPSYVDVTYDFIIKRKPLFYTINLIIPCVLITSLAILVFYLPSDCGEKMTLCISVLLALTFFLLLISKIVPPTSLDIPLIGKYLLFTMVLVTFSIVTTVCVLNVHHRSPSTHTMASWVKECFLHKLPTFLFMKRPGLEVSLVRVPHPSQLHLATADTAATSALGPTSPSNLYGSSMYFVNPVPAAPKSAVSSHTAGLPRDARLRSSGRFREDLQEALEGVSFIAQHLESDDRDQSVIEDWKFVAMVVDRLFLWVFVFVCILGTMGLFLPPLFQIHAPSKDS

[15] = biological target: T5, α4β4-nAChR (Rattus norvegicus, UniProt P09483+P12392); test: as above; details: stably transfected HEK293 cells, [3H]epibatidine (0.5 nM)
T5 construct: expressed in transfected cells
T5 sequence (P09483 31-630): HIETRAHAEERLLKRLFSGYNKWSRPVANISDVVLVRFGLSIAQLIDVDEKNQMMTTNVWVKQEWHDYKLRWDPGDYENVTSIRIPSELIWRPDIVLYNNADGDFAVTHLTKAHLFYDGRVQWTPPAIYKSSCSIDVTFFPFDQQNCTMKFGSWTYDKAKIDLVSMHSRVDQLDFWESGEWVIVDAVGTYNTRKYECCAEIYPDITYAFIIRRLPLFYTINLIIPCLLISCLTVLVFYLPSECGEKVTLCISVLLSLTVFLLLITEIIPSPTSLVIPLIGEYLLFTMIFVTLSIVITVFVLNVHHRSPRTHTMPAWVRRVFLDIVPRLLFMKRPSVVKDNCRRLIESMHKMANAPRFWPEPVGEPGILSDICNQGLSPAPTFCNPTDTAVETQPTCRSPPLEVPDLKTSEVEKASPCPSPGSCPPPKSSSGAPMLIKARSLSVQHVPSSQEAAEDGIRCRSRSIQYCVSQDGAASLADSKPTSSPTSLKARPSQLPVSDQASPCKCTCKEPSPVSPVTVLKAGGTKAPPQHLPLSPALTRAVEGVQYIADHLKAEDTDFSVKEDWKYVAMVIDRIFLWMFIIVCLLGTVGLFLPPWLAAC
T5 sequence (P12392 21-495): as the sequence (P12392 21-495) above

[16] = biological target: T6, α2β4-nAChR (Rattus norvegicus, UniProt P12389+P12392); test: as above; details: stably transfected HEK293 cells, [3H]epibatidine (0.5 nM)
T6 construct: expressed in transfected cells
T6 sequence (P12389 28-511): as the sequence (P12389 28-511) above
T6 sequence (P12392 21-495): as the sequence (P12392 21-495) above

[17] = biological target: rat a7-nAChR (Rattus norvegicus, UniProt Q05941); test: biochemical; assay type: binding
Chain of rat a7-nAChR (Q05941 23-502): as the sequence (P49582 23-502) above, with T402A counted along it

[18] = biological target: α3β2-nAChR (Rattus norvegicus, UniProt P04757+P12390); test: Heteromeric nAChR binding assay, transfected HEK293 membranes, [3H]epibatidine; details: stably transfected HEK293 cells, [3H]epibatidine (0.5 nM)
Chain of α3β2-nAChR (P04757 26-499): as the sequence (P04757 26-499) above
Chain of α3β2-nAChR (P12390 25-500): as the sequence (P12390 25-500) above

[19] = biological target: α4β2-nAChR (Rattus norvegicus, UniProt P09483+P12390); test: as above
Chain of α4β2-nAChR (P09483 31-630): as the sequence (P09483 31-630) above
Chain of α4β2-nAChR (P12390 25-500): as the sequence (P12390 25-500) above

[20] = biological target: T7, Human 5-HT3 (Homo sapiens, UniProt P46098); test: 5-HT3(h) binding assay, recombinant HEK293 cells, [3H]GR65630
T7 sequence (P46098 24-478): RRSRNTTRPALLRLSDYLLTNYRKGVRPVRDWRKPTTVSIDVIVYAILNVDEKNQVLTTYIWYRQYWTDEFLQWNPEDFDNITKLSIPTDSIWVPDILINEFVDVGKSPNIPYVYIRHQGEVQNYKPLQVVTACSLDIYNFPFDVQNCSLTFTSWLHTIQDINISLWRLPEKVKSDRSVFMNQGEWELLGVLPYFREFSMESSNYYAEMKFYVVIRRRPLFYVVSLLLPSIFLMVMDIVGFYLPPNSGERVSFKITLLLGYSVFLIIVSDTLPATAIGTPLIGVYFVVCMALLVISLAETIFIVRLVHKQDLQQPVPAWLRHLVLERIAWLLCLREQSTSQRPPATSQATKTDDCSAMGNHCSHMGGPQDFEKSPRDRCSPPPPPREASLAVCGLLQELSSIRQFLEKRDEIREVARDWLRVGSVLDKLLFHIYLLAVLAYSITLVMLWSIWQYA

[21] = biological target: T7, Human 5-HT3; details: read-out: KD of radiotracer, 5-HT3; cited from earlier work
[22] = biological target: T1, α7-nAChR; parameters: The brains were rapidly removed and dissected on ice; tissue Charles River Laboratories; host or cells: brain of live male CD-1 mice; species or system CD-1 mice; details: in vivo; remark: listed apart in the source
[23] = biological target: T1, α7-nAChR; details: drugs 2 mg/kg sc, 10 min before radiotracer, 90 min
[24] = biological target: T3, α7-nAChR; details: read-out: Ki α7-nAChR (literature); cited from earlier work
[25] = biological target: T2, α7-nAChR; details: read-out: KD of radiotracer, α7-nAChR; cited from earlier work
[26] = male, baboon (Papio anubis), in vivo

What does the source list for `O=S1(=O)c2cc(N3CCN4CCC3CC4)ccc2-c2cccc([18F])c21` [[^18F]7a]?
regional brain uptake in mutant DISC1 versus control mice [1]: significantly lower in all regions studied; Approximate BPND, Coll [2]: 8.0 and 8.0 ± 1.6; Approximate BPND, Ctx [2]: 5.3 and 5.3 ± 1.2; Approximate BPND, Hipp [2]: 5.5 and 5.5 ± 1.7; BPND in control mice [2]: 8 and 5.3-8.0; ratios of tissues to cerebellum ([2]; iv): 10; Regional BPND ([VT/VND]−1) ([3]; in vivo): 3.9 to 6.6 and 3.9-6.6; nonspecific binding ([3]; in vivo): less than 30%; specific binding ([3]; in vivo): 80%-90%; brain uptake [3, 26]: 500 % standardized uptake value [SUV]; lowest observed VT [3, 26]: 14 mL/mL; combined radiometabolites in the plasma [4]: 70%; Ki ([5]; Ki α7-nAChR (text)): 0.4 nM; binding potential BPND [6]: ~1; test-retest variability (TRV) [6]: 10.8±5.1%; VT, lower regions ([6]; male, human): G15 ml/ml; VT, relatively high regions ([6]; male, human): 920 ml/ml; peak brain uptake ([6]; male, human): 400 %SUV; time of peak brain uptake ([6]; male, human): 10 to 15 min; Ki [7]: 0.3 nM; time of plasma TAC peak [8]: ≤ 1 min; parent metabolized ([8]; 0.5 h): 52.6±12.9%; parent metabolized ([8]; 1.5 h): 83.5±9.7%; baseline-to-blockade ratio [9]: 13; specific binding value [9]: 94%; acetylcholine-induced whole-cell current restored, of baseline [10]: 60%; unchanged parent in the mouse brain [11]: at least 95%; unchanged parent in the mouse blood ([12]; after intravenous administration): approximately 1%; combined radiometabolites in the plasma ([12]; mice, 30 min after injection): approximately 99%

With `O=S1(=O)c2cc(N3CCN4CCC3CC4)ccc2-c2cccc(F)c21` [Compound 7a, 3-(1,4-Diazabicyclo[3.2.2]nonan-4-yl)-6-fluorodibenzo[b,d]thiophene 5,5-Dioxide] as the molecule, how does the Ki [13] read?
Its Ki is > 10000 nM.

And the Ki [14]?
The Ki was 709 nM.

And the Ki [15]?
Its Ki is 1000 nM.

What about the Ki ([5]; read-out: Ki α7-nAChR) of the same molecule?
The Ki was 0.37 nM and 0.45 nM.

What about the Ki ([5]; read-out: Ki α7-nAChR (text)) of the same molecule?
Its Ki is 0.4 nM.

What about the Ki [16] of the same molecule?
The Ki was 4000 nM.

And the Ki [17]?
The Ki was 0.3 nM.

And the “behavioral / locomotor activity changes” value [9]?
Its value is “Neither behavioral nor locomotor activity changes were observed”.

And the Ki [18]?
Its Ki is 1000 nM.

And the “block of acetylcholine activation” value [10]?
Its value is “nearly completely blocked activation by acetylcholine”.

What about the “selectivity α7/α4β2” value [19] of the same molecule?
Its value is 1370.

And the Ki ([19]; stably transfected HEK293 cells, [3H]epibatidine (0.5 nM))?
Its Ki is 562 nM.

What about the “selectivity α7/5HT3” value [20] of the same molecule?
The value was 561.

And the Ki ([20]; Human 5-HT3 recombinant/HEK293 cells, [3H]GR65630 (0.35 nM))?
The Ki was 230 nM.

Which Kd [21] does the source give for `Cc1[nH]cnc1CCC(=O)c1cn(C)c2ccccc12` [[^3H]GR65630] here?
Its Kd is 0.5 nM.

Which “Mean occupancy of a7-nAChRs” value ([3]; dose of 0.5 mg/kg iv, individual VND values) does the source give for `O=C(Oc1ccc(Br)cc1)N1CCN2CCC1CC2` [Compound 1, reference compound] here?
The value was 38%.

And the “Mean occupancy of a7-nAChRs” value ([3]; dose of 0.5 mg/kg iv, mean VND value of 2 doses)?
Its value is 32.9%.

What about the “Mean occupancy of a7-nAChRs” value ([3]; dose of 5 mg/kg iv, individual VND values) of the same molecule?
Its value is 80.5%.

What about the “Mean occupancy of a7-nAChRs” value ([3]; dose of 5 mg/kg iv, mean VND value of 2 doses) of the same molecule?
Its value is 94.1%.

And the “blockade of [18F]7a accumulation in mouse brain” value [22]?
The value was “dose dependent blockade in all regions studied”.

And the “effect on accumulation of [18F]7a in mouse brain” value [23]?
The value was “reduced accumulation of radioactivity”.

And the Ki [24]?
The Ki was 22 nM.

With [^125I]α-bungarotoxin as the molecule, how does the Kd [25] read?
The Kd was 0.7 nM.
